The source of these data is patent publication US9156877B2, “17-hydroxy-17-pentafluorethyl-estra-4,9(10)-dien-11-benzylidene derivatives, methods for the production thereof and use thereof for treating diseases” (Bayer Intellectual Property GmbH, priority 2009, dated 2015).

Molecules are shown by their SMILES. Converted amounts (≈) assume the structure as drawn.

The target of series [1] is T1, human progesterone receptor B (Homo sapiens, UniProt P06401).
T1 construct: expressed in transfected cells; host or cells: SK-N-MC human neuroblastoma cells, stably transfected with pRChPR-B-neo and pMMTV-LUC
T1 sequence (P06401 1-933): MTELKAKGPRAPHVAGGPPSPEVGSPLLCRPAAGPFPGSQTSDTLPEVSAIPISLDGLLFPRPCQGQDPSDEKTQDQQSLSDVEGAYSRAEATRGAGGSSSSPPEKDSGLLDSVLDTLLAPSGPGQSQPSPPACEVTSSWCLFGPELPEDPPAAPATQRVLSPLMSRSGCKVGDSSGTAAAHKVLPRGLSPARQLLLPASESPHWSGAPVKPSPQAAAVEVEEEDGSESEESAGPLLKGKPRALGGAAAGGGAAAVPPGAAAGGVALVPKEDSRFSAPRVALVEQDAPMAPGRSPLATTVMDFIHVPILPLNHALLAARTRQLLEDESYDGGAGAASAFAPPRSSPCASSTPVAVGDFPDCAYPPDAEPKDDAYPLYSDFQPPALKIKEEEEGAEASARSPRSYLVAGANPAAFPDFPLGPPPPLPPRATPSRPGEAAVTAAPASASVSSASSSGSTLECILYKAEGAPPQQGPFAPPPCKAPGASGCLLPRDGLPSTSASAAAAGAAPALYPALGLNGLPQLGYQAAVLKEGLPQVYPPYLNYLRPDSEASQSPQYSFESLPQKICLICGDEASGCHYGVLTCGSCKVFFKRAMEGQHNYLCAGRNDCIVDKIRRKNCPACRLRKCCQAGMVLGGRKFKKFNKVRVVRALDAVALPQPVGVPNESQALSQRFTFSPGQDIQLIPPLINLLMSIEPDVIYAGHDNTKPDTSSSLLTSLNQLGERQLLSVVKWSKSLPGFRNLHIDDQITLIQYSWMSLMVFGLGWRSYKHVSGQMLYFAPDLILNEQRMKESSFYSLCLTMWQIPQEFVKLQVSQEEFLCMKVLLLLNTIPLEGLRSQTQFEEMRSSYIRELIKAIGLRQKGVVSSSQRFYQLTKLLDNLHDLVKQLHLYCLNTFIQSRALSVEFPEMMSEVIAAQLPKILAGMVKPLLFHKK
Put plainly: Progesterone receptor-antagonistic action in stably transfected SK-N-MC cells with MMTV-LUC reporter (PR-B). It counts as cell-based. The settings on record: antagonistic potency against 0.1 nmol/l promegestone, 24 hours, luciferase. The gist of the method:
(§1)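 SK-N-MC neuroblastoma cells stably expressing human PR-A or PR-B plus MMTV-LUC reporter, treated 24 h with test compound (0.01 nmol/l–[…]). Antagonist mode used co-treatment with 0.1 nmol/l promegestone; luciferase in lysates read as RLU, expressed as % efficacy and IC50/EC50.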

Series [2] concerns the target T2, human progesterone receptor A (Homo sapiens, UniProt P06401).
T2 construct: expressed in transfected cells; host or cells: SK-N-MC human neuroblastoma cells, stably transfected with pRChPR-A-neo and pMMTV-LUC
T2 sequence (P06401 1-769 isoform P06401-2): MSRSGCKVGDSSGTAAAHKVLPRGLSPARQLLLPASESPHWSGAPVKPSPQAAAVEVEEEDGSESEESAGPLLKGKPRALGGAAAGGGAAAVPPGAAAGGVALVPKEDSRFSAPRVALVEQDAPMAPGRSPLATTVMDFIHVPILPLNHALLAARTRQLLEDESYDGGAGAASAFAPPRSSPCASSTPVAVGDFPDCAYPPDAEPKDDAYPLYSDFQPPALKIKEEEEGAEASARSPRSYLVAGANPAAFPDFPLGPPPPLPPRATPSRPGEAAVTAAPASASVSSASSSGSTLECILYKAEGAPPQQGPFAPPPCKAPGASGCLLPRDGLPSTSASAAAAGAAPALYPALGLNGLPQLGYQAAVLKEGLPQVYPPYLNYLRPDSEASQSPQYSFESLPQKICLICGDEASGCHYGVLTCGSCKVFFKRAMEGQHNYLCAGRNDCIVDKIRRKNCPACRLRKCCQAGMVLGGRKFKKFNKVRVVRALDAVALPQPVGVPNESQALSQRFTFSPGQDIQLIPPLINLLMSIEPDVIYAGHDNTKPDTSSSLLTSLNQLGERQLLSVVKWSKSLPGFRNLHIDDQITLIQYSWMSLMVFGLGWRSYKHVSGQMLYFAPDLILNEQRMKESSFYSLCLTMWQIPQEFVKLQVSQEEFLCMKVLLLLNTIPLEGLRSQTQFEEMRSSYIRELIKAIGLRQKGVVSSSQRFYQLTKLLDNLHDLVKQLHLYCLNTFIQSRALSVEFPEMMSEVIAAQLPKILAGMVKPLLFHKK
Put plainly: Progesterone receptor-antagonistic action in stably transfected SK-N-MC cells with MMTV-LUC reporter (PR-A). The format is cell-based. The settings on record: antagonistic potency against 0.1 nmol/l promegestone, 24 hours, luciferase. The gist of the method: as §1

Series [3] is described as follows: Metabolic stability in rat liver microsomes. The settings on record: for Predicted clearance [l/h/kg] Rat: well-stirred model. The format is in vitro ADME. Here is the method: (§2) Determination of Metabolic Stability in Human and Rat Liver Microsomes
(§3) The incubations were conducted with 2.4 ml of HLM solution (protein content 0.5 mg/ml), 30 μl of the test compound (final concentration 1 μM) and 0.6 ml of the cofactor mixture (═NADPH-generating system composed of 3 IU glucose-6-phosphate dehydrogenase, 14.6 mg glucose-6-phosphate, 1.2 mg NADP) at 37° C. in 100 mM phosphate buffer at pH 7.4. Samples were taken at 6 time points (2-60 min) and precipitated with an equal volume of methanol, and the recovery of the test substances used in the supernatant was determined by LC-MS/MS analysis. The half-life of substance degradation determined therefrom was used to calculate what is called the intrinsic clearance of the substance in the liver microsome preparation. […] In addition, under the assumptions that (i) absorption of the test substance is 100%, and (ii) the first pass is completely reflected by liver microsome metabolism, a maximum oral bioavailability (Fmax) was calculated.

Series [4] in a line: Solubility in aqueous medium at pH 7.4. It counts as physicochemical. The conditions noted are these: for solubility: aqueous medium, pH 7.4, aqueous buffer. From the text: In addition, some compounds have an unusually good solubility, for this active ingredient class, in aqueous medium under physiological conditions (Table 2).
A short description of series [5]: Metabolic stability in human liver microsomes. It counts as in vitro ADME. The conditions noted are these: for Predicted clearance [l/h/kg] Human: 1 μM, well-stirred model. How it is done: as §2
Isolated human liver microsomes (HLM) were used to assess the metabolic stability of compounds of general formula I.
as §3

In series [1], `CCO/N=C/c1ccc([C@H]2C[C@@]3(C)[C@@H](CC[C@@]3(O)C(F)(F)C(F)(F)F)[C@@H]3CCC4=CC(=O)CCC4=C32)cc1` [Example 36, 4-((8S,11R,13S,14S,17S)-17-hydroxy-13-methyl-3-oxo-17-pentafluoroethyl-2,3,6,7,8,11,12,13,14,15,16,17-dodecahydro-1H-cyclopenta[a]phenanthren-11-yl)benzaldehyde O-ethyl oxime] yielded a half-maximal inhibitory concentration (IC50) of 0.08 nM. The compound further came in with an IC50 in series [2] of 0.08 nM. In addition, in series [3], the “Predicted Fmax [%] (maximum oral bioavailability) Rat” value was 82% and the “Predicted clearance [l/h/kg] Rat” value is 0.8 L/h/kg. The solubility in series [4] is 5 µg/mL (≈ 9.3 µM). For the same compound, in series [5], the “Predicted Fmax [%] (maximum oral bioavailability) Human” value is listed as 72% and the “Predicted clearance [l/h/kg] Human” value is 0.36 L/h/kg.

`CC(=O)/C=C/c1ccc([C@H]2C[C@@]3(C)[C@@H](CC[C@@]3(O)C(F)(F)C(F)(F)F)[C@@H]3CCC4=CC(=O)CCC4=C32)cc1` [Example 16, (8S,11R,13S,14S,17S)-17-hydroxy-13-methyl-11-[4-((E)-3-oxobut-1-enyl)phenyl]-17-pentafluoroethyl-1,2,6,7,8,11,12,13,14,15,16,17-dodecahydrocyclopenta[a]phenanthren-3-one] showed an IC50 in series [1] of 0.3 nM. The same compound displayed an IC50 in series [2] of 0.1 nM. In addition, in series [3], the “Predicted Fmax [%] (maximum oral bioavailability) Rat” value is 52% and the “Predicted clearance [l/h/kg] Rat” value was 2.0 L/h/kg. In series [4], this compound yielded a solubility of 10 µg/mL (≈ 18.7 µM). Besides, in series [5], the “Predicted Fmax [%] (maximum oral bioavailability) Human” value was 23% and the “Predicted clearance [l/h/kg] Human” value is 1.02 L/h/kg.

Take `C[C@]12C[C@H](c3ccc(/C=C/c4ccncc4)cc3)C3=C4CCC(=O)C=C4CC[C@H]3[C@@H]1CC[C@@]2(O)C(F)(F)C(F)(F)F` [Example 8, (8S,11R,13S,14S,17S)-17-hydroxy-13-methyl-17-pentafluoroethyl-11-[4-((E)-2-pyridin-4-ylvinyl)phenyl]-1,2,6,7,8,11,12,13,14,15,16,17-dodecahydrocyclopenta[a]phenanthren-3-one]: in series [1], half-maximal inhibition (IC50) was put at 0.077 nM. Further, the IC50 in series [2] amounted to 0.012 nM. In series [3], the “Predicted Fmax [%] (maximum oral bioavailability) Rat” value is reported as 92% and the “Predicted clearance [l/h/kg] Rat” value was 0.3 L/h/kg. In series [4], this compound showed a solubility of 7 µg/mL (≈ 12.3 µM). Further, in series [5], the “Predicted Fmax [%] (maximum oral bioavailability) Human” value is recorded as 87% and the “Predicted clearance [l/h/kg] Human” value was 0.18 L/h/kg.

Consider `C[C@]12C[C@H](c3cccc(/C=C/c4cccnc4)c3)C3=C4CCC(=O)C=C4CC[C@H]3[C@@H]1CC[C@@]2(O)C(F)(F)C(F)(F)F` [Example 22, (8S,11R,13S,14S,17S)-17-hydroxy-13-methyl-17-pentafluoroethyl-11-[3-((E)-2-pyridin-3-ylvinyl)phenyl]-1,2,6,7,8,11,12,13,14,15,16,17-dodecahydrocyclopenta[a]phenanthren-3-one], for which the midpoint of inhibition in series [1], the IC50, lay at 1 nM. In series [2], this compound yielded a 50% inhibitory concentration (IC50) of 0.3 nM. In addition, in series [3], the “Predicted Fmax [%] (maximum oral bioavailability) Rat” value is on record as 77% and the “Predicted clearance [l/h/kg] Rat” value is 1.0 L/h/kg. In series [4], this compound returned a solubility of 6 µg/mL (≈ 10.5 µM). In addition, in series [5], the “Predicted Fmax [%] (maximum oral bioavailability) Human” value is on record as 41% and the “Predicted clearance [l/h/kg] Human” value was 0.8 L/h/kg.

`C[C@]12C[C@H](c3ccc(/C=C/CO)cc3)C3=C4CCC(=O)C=C4CC[C@H]3[C@@H]1CC[C@@]2(O)C(F)(F)C(F)(F)F` [Example 2, (8S,11R,13S,14S,17S)-17-hydroxy-11-[4-((E)-3-hydroxypropenyl)phenyl]-13-methyl-17-pentafluoroethyl-1,2,6,7,8,11,12,13,14,15,16,17-dodecahydrocyclopenta[a]phenanthren-3-one] came in with an IC50 in series [1] of 0.25 nM. The same compound returned an IC50 in series [2] of 0.14 nM. In addition, in series [3], the “Predicted Fmax [%] (maximum oral bioavailability) Rat” value is recorded as 69% and the “Predicted clearance [l/h/kg] Rat” value is 1.3 L/h/kg. Besides, in series [4], the solubility is 11 µg/mL (≈ 21.1 µM). Also, in series [5], the “Predicted Fmax [%] (maximum oral bioavailability) Human” value is listed as 69% and the “Predicted clearance [l/h/kg] Human” value is 0.41 L/h/kg.

`Cc1nc(/C=C/c2ccc([C@H]3C[C@@]4(C)[C@@H](CC[C@@]4(O)C(F)(F)C(F)(F)F)[C@@H]4CCC5=CC(=O)CCC5=C43)cc2)cs1` [Example 9, (8S,11R,13S,14S,17S)-17-hydroxy-13-methyl-11-{4-[(E)-2-(2-methylthiazol-4-yl)vinyl]phenyl}-17-pentafluoroethyl-1,2,6,7,8,11,12,13,14,15,16,17-dodecahydrocyclopenta[a]phenanthren-3-one] came in with an IC50 in series [1] of 0.09 nM. The compound also returned an IC50 in series [2] of 0.055 nM. In series [3], the “Predicted Fmax [%] (maximum oral bioavailability) Rat” value is reported as 76% and the “Predicted clearance [l/h/kg] Rat” value was 1.0 L/h/kg. Besides, the concentration in solution in series [4] (solubility) came to 8 µg/mL (≈ 13.6 µM). Moreover, in series [5], the “Predicted Fmax [%] (maximum oral bioavailability) Human” value was 68% and the “Predicted clearance [l/h/kg] Human” value was 0.43 L/h/kg.

Compound `C[C@]12C[C@H](c3ccc(/C=C/c4cccc(C(=O)O)c4)cc3)C3=C4CCC(=O)C=C4CC[C@H]3[C@@H]1CC[C@@]2(O)C(F)(F)C(F)(F)F` [Example 28, 3-{(E)-2-[4-((8S,11R,13S,14S,17S)-17-hydroxy-13-methyl-3-oxo-17-pentafluoroethyl-2,3,6,7,8,11,12,13,14,15,16,17-dodecahydro-1H-cyclopenta[a]phenanthren-11-yl)phenyl]vinyl}benzoic acid] showed an IC50 in series [1] of 0.1 nM. The compound further showed an IC50 in series [2] of 0.06 nM. Also, in series [3], the “Predicted Fmax [%] (maximum oral bioavailability) Rat” value is 97% and the “Predicted clearance [l/h/kg] Rat” value was 0.1 L/h/kg. Further, in series [4] (aqueous medium under physiological conditions), the “solubility (in words)” value was “improved”. This compound yielded a solubility in series [4] of 120 µg/mL (≈ 196 µM). Further, in series [5], the “Predicted Fmax [%] (maximum oral bioavailability) Human” value is given as 74% and the “Predicted clearance [l/h/kg] Human” value was 0.35 L/h/kg.

A word on the IC50: it is the concentration needed to halve the response being measured. What is called solubility is the dissolved amount per volume that the medium holds. Low values mean little dissolved substance, high ones much dissolved substance.
